“And” between values parts separate entries of the source, which are not always exact repeats. Equal values may be shown once. Read-outs that look alike come from different tables or passages of the source. Values belong to the compound of their own block, whether it stands above or below them.
How the values were obtained:
[1] = system: female rats of Sprague downey breed; conditions: skin biopsy of laparotomy incision line, group average
[2] = system: back skin of New Zealand albino rabbits; assay: Skin irritation test TS EN ISO 10993-10 (barrier solution)
Text: Three healthy young New Zealand albino rabbits with a body weight of 2-3 kg were used as experimental animals.
Test material given under the title of TS EN ISO 10993-10:2010 annex A A.2,2 Liquid test materials; Liquids were applied without dilution or by direct precipitation or, if not applicable, at a dose of 1600 ppm, which is the usage dose according to the guideline. […] The sponge impregnated with the nanosolution of the invention was kept in direct contact with the sample application areas. SLS impregnated sponge was applied to the positive control area. The samples were covered with gauze, fixed with a bandage, and topically contacted with the back skin for 4 hours. The primary irritation index was determined by evaluating the application areas (1±0.1) […], and (72±2) hours after the 4th hour application, according to the skin reaction score given in Chart 1. As stated in the standard, the 1st hour was not included in the calculation.

[3] = system: back skin of New Zealand albino rabbits; assay: Irritation test TS EN ISO 10993-10 (injection solution); format: in vivo, rabbit; conditions: for Primary irritation score (score average): 24th-72nd hour, 1st hour not included
albino guinea pigs = assay: Sensitization test, Closed Patch-Buehler method; conditions: per animal
[4] = system: inner cheek pouch of Syrian hamsters; assay: Oral mucosal irritation test
Method: Oral mucosal irritation test was carried out considering the TS EN ISO 10993-10:2010 standard, the experimental animal used in the test is considered according to TS EN ISO 10993-2:2006 standard, the material preparation is made according to TS EN ISO 10993-12:2012 standard guidelines. The test is performed for materials intended to come into contact with oral tissue and where safety data cannot be obtained by other means.
Animals were acclimated to the environment by taking care of them as specified in TS EN ISO 10993-2:2006. Healthy young adult Syrian hamsters of both sexes, unrelated to a single strain, were used for testing. Product sample-impregnated gauze was placed in the inner cheek pouch of each animal under ketamine/Xylazine anesthesia. The exposure time was evaluated according to the rule of reflecting the actual expected use time of the material, and the sample was kept in the inner cheek pouch for 1 hour.
Test material given under the title of ISO 10993-10:2010 annex A A.2,2 Liquid test materials; Liquids were applied without dilution or by direct precipitation or, if not applicable, at a dose of 1600 ppm, which is the usage dose according to the guideline. Saline solution-impregnated absorbent gauze was used as negative control. As a positive control, HCl acid solution adjusted to pH 1.5 was used in our laboratory based on the rule that liquids with pH 2 and below are considered irritating.
The left inner cheek pouch of each animal was evaluated for the experimental sample, and the contralateral (Right) inner cheek was considered as the negative control. No material was placed into the right side inner cheek pouch, it was only washed with physiological saline and dissected at the end of the experiment.
Gauze cloth impregnated with a usage dose of 1600 ppm of the nanosolution of the invention was placed in the left inner cheek pouch of Syrian hamsters under ketamine/Xylazine anesthesia, whose inner cheeks were emptied and washed with saline. After the exposure of the subject to the sample for 1 hour, the sample was removed and the inner cheek was rinsed with saline solution, taking care not to contaminate the other cheek. Experiment (left) and control (right) inner cheek pouches were evaluated macroscopically according to chart 1. The experiment was terminated after 1 hour of contact.
According to the standard directive, the exposure time should reflect the actual expected use time of the material, but should not be less than 5 minutes. The repeated observation rating (Table 1) performed at long-term chronic exposures is summed up and divided by the total repeat application 4. Since it is a device with subacute use, the application was performed 4 times with one hour intervals. Observations of the sample applied left inner cheek were compared with the right inner cheeks (negative control) washed with saline.

[5] = system: BALB/c 3T3 (CCL-163) cell line; conditions: mouse, 48 h
[6] = system: L-929 mouse fibroblast cell line; conditions: 48 h
[7] = left cheek (experiment), single subject

Compound: CCN(CC)CC(=O)Nc1c(C)cccc1C [1% lidocaine]
Collagen Epidermis/Dermis (%) [1]: 25.33 ± 2.46%
Bleeding score ([1]; scoring out of 3): 0.83 ± 0.54
Connective tissue score ([1]; scoring out of 3): 2.67 ± 0.33
Edema score ([1]; scoring out of 3): 0.67 ± 0.33
Inflammation score ([1]; scoring out of 3): 2.50 ± 0.34
Vascular formation score ([1]; scoring out of 3): 1.83 ± 0.17

Compound: CCCCCCCCCCCCOS(=O)(=O)[O-].[Na+] [Positive control, Sodium lauryl sulphate]
Primary Irritation Score Rabbit 1 ([2]; 24th, 48th, 72nd hours): 2.167 ± 1.169
Primary Irritation Score Rabbit 2 ([2]; 24th, 48th, 72nd hours): 1.333 ± 1.2
Primary Irritation Score Rabbit 3 ([2]; 24th, 48th, 72nd hours): 1.500 ± 1.049
Primary Irritation Index ([2]; three rabbits): 1.666
Primary irritation score (score average) ([3]; Rabbit 1): 2.167 ± 1.169
Primary irritation score (score average) ([3]; Rabbit 2): 1.333 ± 1.211
Primary irritation score (score average) ([3]; Rabbit 3): 1.500 ± 1.049
Primary Irritation Index ([3]; mean of three rabbits): 1.666
Magnusson and Kligman Rating (albino guinea pigs; 24th hour after stimulation, 2020 Oct. 27): 2
Magnusson and Kligman Rating (albino guinea pigs; 48th hour after stimulation, 2020 Oct. 28): 2
Magnusson and Kligman Rating (albino guinea pigs; Induction first week, application date 2020 Sep. 24, 6 h closed patch): 1
Magnusson and Kligman Rating (albino guinea pigs; Induction first week, application date 2020 Sep. 26, 6 h closed patch): 1
Magnusson and Kligman Rating (albino guinea pigs; Induction first week, application date 2020 Sep. 28, 6 h closed patch): 1
Magnusson and Kligman Rating (albino guinea pigs; Induction, application date 2020 Oct. 2, 6 h closed patch, sulphate): 2 (3×) and 1 (2×)
Magnusson and Kligman Rating (albino guinea pigs; Induction, application date 2020 Oct. 4, 6 h closed patch): 2
Magnusson and Kligman Rating (albino guinea pigs; Induction, application date 2020 Oct. 7, 6 h closed patch): 2
Magnusson and Kligman Rating (albino guinea pigs; Induction, application date 2020 Oct. 9, 6 h closed patch, sulphate): 2 (4×) and 3
Magnusson and Kligman Rating (albino guinea pigs; Induction, application date 2020 Oct. 12, 6 h closed patch, sulphate): 3 (4×) and 2
Magnusson and Kligman Rating (albino guinea pigs; Induction, application date 2020 Sep. 31, 6 h closed patch, sulphate): 1 (4×) and 2
Magnusson and Kligman Rating (albino guinea pigs; Stimulation application, 2020 Oct. 26, sulphate): 2 (4×) and 3
macroscopic examination of inner cheek mucosa ([4]; hamster, in vivo): Areas of mucosal erosion were noted
Microscopic irritation score Edema [4, 7]: 0
Microscopic irritation score Epithelium [4, 7]: 3
Microscopic irritation score Leukocyte infiltration [4, 7]: 2 (Mild (26 to 50))
Microscopic irritation score Vascular congestion [4, 7]: 1

Vitality % ([5]; 3 % v/v): 31.25%
Optical density (OD) mean value 570 nm ± standard deviation (SD) ([5]; 10 % v/v): 0.1 ± 0.06
Vitality % ([5]; 10 % v/v): 24.37%
Optical density (OD) mean value 570 nm ± standard deviation (SD) ([5]; 30 % v/v): 0.078 ± 0.02
Vitality % ([6]; 10 % v/v): 53.44%
Vitality % ([6]; 30 % v/v): 36.46%
Compound: C[S+](C)[O-] [PC, Dimethylsulfoxide]

From US20230240989A1, “LIPOSOMAL OZONE NANOSOLUTIONS” (priority 2021, published 2023)
